Measured values taken from ChEMBL document CHEMBL6121051, “Dendritic Antifungal Peptides as Potent Agents against Drug-Resistant Candida albicans and Biofilm” (J Med Chem, 2025).
Values after ≈ are worked out from the molar mass of the structure shown. Active and inactive are the calls of the source. The rule behind the calls is not given here. Positions of bridges follow the written chain, without caps; N, C: chain ends. Residues, ends and D or L forms follow the SMILES beside them. Groups on a side chain read outwards from the residue. Chains are numbered I, II in the order given. *: point of attachment. Lauroyl = CCCCCCCCCCCC(=O)*; Octanoyl = CCCCCCCC(=O)*; Butyryl = CCCC(=O)*

Columns and labels:
Candida albicans [1] = assay: Antifungal activity against fluconazole-resistant Candida albicans 56214 infected in ICR mouse assessed as wound healing with appearance of new skin tissue at 1 mg/ml administered topically bid for 3 days starting at 12 hrs post-infection and measured for 6 days; format: functional, organism-based; details: time 6.0 day
Candida albicans [2] = assay: Antifungal activity against fluconazole-resistant Candida albicans 56214 infected in ICR mouse assessed as elimination of fungal hyphae on the infected skin at 1 mg/ml administered topically bid for 3 days starting at 12 hrs post-infection and measured after 7 days by PAS staining; format: functional, organism-based; details: time 7.0 day
Candida albicans [3] = assay: (§1) Antifungal activity against fluconazole-resistant Candida albicans 56214 infected in ICR mouse assessed as reduction in severity of skin infection at 1 mg/ml administered topically bid for 3 days starting at 12 hrs post-infection and measured after 7 days by PAS staining based analysis; format: functional, organism-based; details: time 7.0 day
Candida albicans [4] = assay: as §1, with “in oxidative stress by measuring decrease in ROS accumulation in” for “in severity of”, “skin wounds” for “skin infection”, “by fluorescence” for “by PAS”; format: functional, organism-based; details: time 7.0 day
Candida albicans [5] = assay: Antifungal activity against fluconazole-resistant Candida albicans 56214 infected in ICR mouse assessed as reduction in IL-6 expression in skin wound at 1 mg/ml administered topically bid for 3 days starting at 12 hrs post-infection and measured after 7 days by immunofluorescence analysis; format: functional, organism-based; details: time 7.0 day
Candida albicans [6] = assay: Antifungal activity against fluconazole-resistant Candida albicans 56214 infected in ICR mouse assessed as reduction in TNF-alpha expression in skin wound at 1 mg/ml administered topically bid for 3 days starting at 12 hrs post-infection and measured after 7 days by immunofluorescence analysis; format: functional, organism-based; details: time 7.0 day
Candida albicans [7] = assay: Antifungal activity against Candida albicans cgmcc 2.2086 assessed as inhibition of fungal growth incubated for 48 hrs; format: functional
Candida albicans [8] = assay: Antifungal activity against fluconazole-resistant Candida albicans 56214 assessed as inhibition of fungal growth incubated for 48 hrs; format: functional
Candida albicans [9] = assay: Antifungal activity against Candida albicans SP 3931 assessed as inhibition of fungal growth incubated for 48 hrs; format: functional
Candida albicans [10] = assay: Antifungal activity against Candida albicans 58288 assessed as inhibition of fungal growth incubated for 48 hrs; format: functional
Candida albicans [11] = assay: Antifungal activity against Candida albicans SP 3903 assessed as inhibition of fungal growth incubated for 48 hrs; format: functional
Candida albicans [12] = assay: Antifungal activity against Candida albicans 17546 assessed as inhibition of fungal growth incubated for 48 hrs; format: functional
Candida albicans [13] = assay: Antifungal activity against Candida albicans 14936 assessed as inhibition of fungal growth incubated for 48 hrs; format: functional
Candida albicans [14] = assay: Antifungal activity against Candida albicans 2.3989 assessed as inhibition of fungal growth incubated for 48 hrs; format: functional
Candida albicans [15] = assay: Antifungal activity against Candida albicans SP 3902 assessed as inhibition of fungal growth incubated for 48 hrs; format: functional
[16] = Toxicity against human RBC assessed as hemolysis rate at 128 ug/ml incubated for 1 hr; format: cell-based, Erythrocyte; details: red blood cells (RBC), dose 128 µg/ml, read-out: Activity
HEK-293T = assay: Cytotoxicity against human HEK293T cells assessed as cell viability at 8 to 128 ug/ml incubated for 4 hrs by MTT assay; format: toxicity, cell-based; details: dose 8-128 µg/ml
[17] = Cytotoxicity against human HEK293T cells assessed as cell survival rate at 128 ug/ml incubated for 4 hrs by MTT assay; format: toxicity, cell-based, HEK-293T; details: dose 128 µg/ml, read-out: Activity
[18] = Cytotoxicity against mouse RAW264.7 cells assessed as cell survival rate at 128 ug/ml incubated for 4 hrs by MTT assay; format: toxicity, cell-based; details: dose 128 µg/ml, read-out: Activity

SMILES | Activity (Candida albicans [1]) | Activity (Candida albicans [2]) | Activity (Candida albicans [3]) | Activity (Candida albicans [4]) | Activity (Candida albicans [5]) | Activity (Candida albicans [6]) | MIC (Candida albicans [7]) [µM] | MIC (Candida albicans [8]) [µM] | MIC (Candida albicans [9]) [µM] | MIC (Candida albicans [10]) [µM] | MIC (Candida albicans [11]) [µM] | MIC (Candida albicans [12]) [µM] | MIC (Candida albicans [13]) [µM] | MIC (Candida albicans [14]) [µM] | MIC (Candida albicans [15]) [µM] | hemolysis at 1 h, 128 ug/ml [16] [%] | Activity (HEK-293T) | viability at 4 h, 128 ug/ml [17] [%] | viability at 4 h, 128 ug/ml [18] [%]
C[C@@H]1[C@H](O)[C@@H](C)/C=C/C=C/C=C/C=C/C=C/C=C/C=C/[C@H](O[C@@H]2O[C@H](C)[C@@H](O)[C@H](N)[C@@H]2O)C[C@@H]2O[C@](O)(C[C@@H](O)C[C@@H](O)[C@H](O)CC[C@@H](O)C[C@@H](O)CC(=O)O[C@H]1C)C[C@H](O)[C@H]2C(=O)O | Active | Active | Active | Active | Active | Active | – | – | – | – | – | – | – | – | – | – | – | – | –
CCCC(=O)NCC(=O)NCC(=O)NCC(=O)N[C@@H](CCCCNC(=O)[C@@H]1CCCN1C(=O)[C@H](CCCNC(=N)N)NC(=O)[C@@H]1CCCN1C(=O)[C@@H](N)CCCNC(=N)N)C(=O)N[C@@H](CCCCNC(=O)[C@@H]1CCCN1C(=O)[C@H](CCCNC(=N)N)NC(=O)[C@@H]1CCCN1C(=O)[C@@H](N)CCCNC(=N)N)C(=O)N[C@@H](CCCNC(=N)N)C(=O)N1CCC[C@H]1C(=O)N[C@@H](CCCNC(=N)N)C(=O)N1CCC[C@H]1C(N)=O (Butyryl-GGGK([Pro-Arg-Pro-Arg])K([Pro-Arg-Pro-Arg])RPRP-NH2) | – | – | – | – | – | – | > 128 | > 128 | > 128 | > 128 | > 128 | > 128 | > 128 | > 128 | > 128 | < 2 | Non-toxic | 95 | –
CCCCCCCCCCCC(=O)NCC(=O)NCC(=O)NCC(=O)N[C@@H](CCCCNC(=O)[C@@H]1CCCN1C(=O)[C@H](CCCNC(=N)N)NC(=O)[C@@H]1CCCN1C(=O)[C@H](CCCNC(=N)N)NC(=O)[C@@H]1CCCN1C(=O)[C@@H](N)CCCNC(=N)N)C(=O)N[C@@H](CCCCNC(=O)[C@@H]1CCCN1C(=O)[C@H](CCCNC(=N)N)NC(=O)[C@@H]1CCCN1C(=O)[C@H](CCCNC(=N)N)NC(=O)[C@@H]1CCCN1C(=O)[C@@H](N)CCCNC(=N)N)C(=O)N[C@@H](CCCNC(=N)N)C(=O)N1CCC[C@H]1C(=O)N[C@@H](CCCNC(=N)N)C(=O)N1CCC[C@H]1C(=O)N[C@@H](CCCNC(=N)N)C(=O)N1CCC[C@H]1C(N)=O (I: Lauroyl-GGGKKRPRPRP-NH2 / II: H-RPRPRP / III: H-RPRPRP; amide I:4-II:C, I:5-III:C) | – | – | – | – | – | – | 16 (≈ 46.5 µg/mL) | 8 (≈ 23.3 µg/mL) | 32 (≈ 93 µg/mL) | 32 (≈ 93 µg/mL) | 8 (≈ 23.3 µg/mL) | 32 (≈ 93 µg/mL) | 16 (≈ 46.5 µg/mL) | 64 (≈ 186 µg/mL) | 8 (≈ 23.3 µg/mL) | < 2 | Non-toxic | 95 | 50
CCCCCCCC(=O)NCC(=O)NCC(=O)NCC(=O)N[C@@H](CCCCNC(=O)[C@@H]1CCCN1C(=O)[C@H](CCCNC(=N)N)NC(=O)[C@@H]1CCCN1C(=O)[C@H](CCCNC(=N)N)NC(=O)[C@@H]1CCCN1C(=O)[C@@H](N)CCCNC(=N)N)C(=O)N[C@@H](CCCCNC(=O)[C@@H]1CCCN1C(=O)[C@H](CCCNC(=N)N)NC(=O)[C@@H]1CCCN1C(=O)[C@H](CCCNC(=N)N)NC(=O)[C@@H]1CCCN1C(=O)[C@@H](N)CCCNC(=N)N)C(=O)N[C@@H](CCCNC(=N)N)C(=O)N1CCC[C@H]1C(=O)N[C@@H](CCCNC(=N)N)C(=O)N1CCC[C@H]1C(=O)N[C@@H](CCCNC(=N)N)C(=O)N1CCC[C@H]1C(N)=O (I: Octanoyl-GGGKKRPRPRP-NH2 / II: H-RPRPRP / III: H-RPRPRP; amide I:4-II:C, I:5-III:C) | – | – | – | – | – | – | 2 (≈ 5.7 µg/mL) | 8 (≈ 22.8 µg/mL) | 16 (≈ 45.6 µg/mL) | 8 (≈ 22.8 µg/mL) | 8 (≈ 22.8 µg/mL) | 4 (≈ 11.4 µg/mL) | 4 (≈ 11.4 µg/mL) | 64 (≈ 182 µg/mL) | 16 (≈ 45.6 µg/mL) | < 2 | Non-toxic | 95 | –
CCCCCCCCCCCC(=O)NCC(=O)NCC(=O)NCC(=O)N[C@@H](CCCCNC(=O)[C@@H]1CCCN1C(=O)[C@H](CCCNC(=N)N)NC(=O)[C@@H]1CCCN1C(=O)[C@@H](N)CCCNC(=N)N)C(=O)N[C@@H](CCCCNC(=O)[C@@H]1CCCN1C(=O)[C@H](CCCNC(=N)N)NC(=O)[C@@H]1CCCN1C(=O)[C@@H](N)CCCNC(=N)N)C(=O)N[C@@H](CCCNC(=N)N)C(=O)N1CCC[C@H]1C(=O)N[C@@H](CCCNC(=N)N)C(=O)N1CCC[C@H]1C(N)=O (Lauroyl-GGGK([Pro-Arg-Pro-Arg])K([Pro-Arg-Pro-Arg])RPRP-NH2) | – | – | – | – | – | – | 16 (≈ 34.3 µg/mL) | 64 (≈ 137 µg/mL) | 64 (≈ 137 µg/mL) | 64 (≈ 137 µg/mL) | 64 (≈ 137 µg/mL) | 32 (≈ 68.7 µg/mL) | 32 (≈ 68.7 µg/mL) | 64 (≈ 137 µg/mL) | 32 (≈ 68.7 µg/mL) | < 2 | Non-toxic | 95 | –
CCCCCCCC(=O)NCC(=O)NCC(=O)NCC(=O)N[C@@H](CCCCNC(=O)[C@@H]1CCCN1C(=O)[C@H](CCCNC(=N)N)NC(=O)[C@@H]1CCCN1C(=O)[C@@H](N)CCCNC(=N)N)C(=O)N[C@@H](CCCCNC(=O)[C@@H]1CCCN1C(=O)[C@H](CCCNC(=N)N)NC(=O)[C@@H]1CCCN1C(=O)[C@@H](N)CCCNC(=N)N)C(=O)N[C@@H](CCCNC(=N)N)C(=O)N1CCC[C@H]1C(=O)N[C@@H](CCCNC(=N)N)C(=O)N1CCC[C@H]1C(N)=O (Octanoyl-GGGK([Pro-Arg-Pro-Arg])K([Pro-Arg-Pro-Arg])RPRP-NH2) | – | – | – | – | – | – | > 128 | > 128 | > 128 | > 128 | > 128 | > 128 | > 128 | > 128 | > 128 | < 2 | Non-toxic | 95 | –
OC(Cn1cncn1)(Cn1cncn1)c1ccc(F)cc1F [FLUCONAZOLE] | – | – | – | – | – | – | 4 (≈ 1.23 µg/mL) | > 128 | 2 (≈ 0.613 µg/mL) | 8 (≈ 2.45 µg/mL) | 2 (≈ 0.613 µg/mL) | 2 (≈ 0.613 µg/mL) | 2 (≈ 0.613 µg/mL) | 4 (≈ 1.23 µg/mL) | 4 (≈ 1.23 µg/mL) | – | – | – | –
